From patent US20110178171A1, “COMPOUNDS FOR CANCER THERAPY” (China Medical University, priority 2010, published 2011)

How the values were obtained:
[1] = system: liver cancer cell line J5; experiment: MTT growth inhibition assay, J5; format: cell-based; settings: J5, hepatocarcinoma
Method: (§1) The results were determined by three independent experiments.
(§2) Besides, the above assay was also conducted on gastric cancer cell line NCI-N87, liver cancer cell line HepG2 and J5, lung cancer cell line A549, and oral cancer cell line OECM-1.

[2] = system: lung cancer cell line A549; experiment: MTT growth inhibition assay, A549; format: cell-based, human; settings: A549, lung adenocarcinoma
Method: as §1, §2

LNCaP cells = experiment: Cell cycle analysis by flow cytometry; format: cell-based, human; settings: 24 h
Method: The cell cycle was determined by flow cytometry with DNA staining to reveal the total amount of DNA. Approximately 5×10^5 of cells were incubated in various concentration of isochaihulactone for the indicated time. Cells were harvested by treating the cells with trypsin/EDTA. The cells were collected, washed with PBS, fixed with cold 70% ethanol overnight, and then stained with a solution containing […] PI, 10 mg/ml RNase A, and 0.1% Triton X-100 for 1 h in the dark. The cells will then pass through FACScan flow cytometer (equipped with a 488-nmargon laser) to measure the DNA content. The data was obtained and analyzed with CellQuest 3.0.1 (Becton Dickinson, Franklin Lakes, N.J.) and ModFitLT V2.0 software. The results are shown Table 4 and FIG. 4.
Assays were carried out to examine the effect of Z-K8 in inducing G2/M phase arrest and apoptosis in LNCaP cells. Briefly, the cells were treated with different concentrations of Z-K8 (ranging from 0.25 to 2 μM) for 24 h. The cell cycle analysis was done according to the method described above. As shown in FIG. 4 and Table 4, Z-K8 induced cell cycle G2/M arrest in LNCaP cells.

caspase-3 = experiment: Caspase-3 activity for apoptosis detection (Caspase-Glo); format: cell-based, human; settings: LNCaP cells, 24 h
Method: In General, drug can cause tumor apoptosis mediated activate caspase-3 leading to release fluoresce dye to detect by machine. Caspase-3 activity was measured using testis supernatants with the Caspase-Glo Assay System (Promega, Madison, Wis.) according to the manufacturer's instructions. Briefly, 50 μl of the Caspase-Glo buffer was added to 50 μl of tissue supernatants in a 96-well plate and incubated at room temperature for 60 minutes. Luminescence was measured using a Biotek synergy microplate reader (Biotek, Winooski, Vt.). Background activity levels, based on measurements in homogenization buffer only, were measured and subtracted from values in the testis tissue supernatants. All values were normalized to total protein content. Standard curves were used to determine the linearity of the responses.
Assays were carried out to examine whether K8 (Isochaihulactone) increases LNCaP cells caspase-3 activity which leads to tumor cell apoptosis. Briefly, LNCaP cells were treated with different concentrations of Z-K8 (0.25 to 4 μM) for 24 h. […] Thus, Z-K8 can be used in the treatment of prostate cancer.

AR = experiment: RT-PCR analysis of AR expression; format: cell-based, human
Method: Total RNA from LNCaP, PC3, 3T3 cells was isolated as described above. cDNA was synthesized by reverse transcription of 2 μg of total RNA using oligo(dT)12-18 and SuperScript II RNA reverse transcriptase (Invitrogen). The cDNA was then used as the template to amplify the corresponding DNA fragments by PCR using two sets of synthetic oligonucleotide primers. DNA amplification was performed by PCR with the Thermocycler 2400 (PerkinElmer Life and Analytical Sciences, Boston, Mass.) using the following parameters: 35 cycles of denaturing at 95° C. for 1 min, annealing at 60° C. for 1 min, and extension at 72° C. for 2 min. Primers used for the AR PCR amplifications are (F): 5′-ATGGTGAGCAGAGTGCCCTA-3′ (SEQ ID NO: 1) (R): 5′-GTGGTGCTGGAAGCCTCTCCT-3′ (SEQ ID NO: 2) PSA (F) 5′-GGTGACCAAGTTCATGCTGTG-3′ (SEQ ID NO: 3) (R) 5′-GTGTCCTTGATCCACTTCCG-3′ (SEQ ID NO: 4) products were separated on 2% agarose gels, stained with ethidium bromide, and visualized using the Fluor Chem imaging system (Alpha InnoTech, San Leandro, Calif.), and levels of glyceraldehyde-3-phosphate dehydrogenase were used as the control.
RT-PCR was conducted to examine the effect of Z-K8 on several human cancer cells. Briefly, the cells were treated with Z-K8 (0.5 μM to 2 μM) or Luteolin (as a positive control) for 24 h. […]

## COc1cc(/C=C2\C(=O)OCC2Cc2ccc3c(c2)OCO3)cc(OC)c1OC (racemic) [Z-K8, Racemic (Z)-β-(3′,4′-Methylenedioxybenzyl)-α-(3′,4′,5′-trimethoxybenzylidene)-γ-butyrolactone]
[1]
  IC50: 2.5 µM
[2]
  IC50: 9.8 µM
LNCaP cells; 0.25 μM
  Cells in phase (%) G0/G1: 63.56%
  Cells in phase (%) G2/M: 18.35%
  Cells in phase (%) S: 5.42%
  Cells in phase (%) Sub-G1: 0.48%
LNCaP cells; 0.5 μM
  Cells in phase (%) G0/G1: 48.30%
  Cells in phase (%) G2/M: 24.99%
  Cells in phase (%) S: 6.61%
  Cells in phase (%) Sub-G1: 3.24%
LNCaP cells; 1 μM
  Cells in phase (%) G0/G1: 57.27%
  Cells in phase (%) G2/M: 10.16%
  Cells in phase (%) S: 4.70%
  Cells in phase (%) Sub-G1: 8.19%
LNCaP cells; 2 μM
  Cells in phase (%) G0/G1: 22.25%
  Cells in phase (%) G2/M: 43.92%
  Cells in phase (%) S: 8.39%
  Cells in phase (%) Sub-G1: 5.73%
caspase-3; 0.25 μM
  Caspase-3 Relative activity: 1.347
caspase-3; 0.5 μM
  Caspase-3 Relative activity: 1.274
caspase-3; 1 μM
  Caspase-3 Relative activity: 1.784
caspase-3; 2 μM
  Caspase-3 Relative activity: 2.399
caspase-3; 4 μM
  Caspase-3 Relative activity: 6.604
AR; LNCaP cells, 1 μM, different times (FIG. 3B)
  AR expression over time (RT-PCR): decreased AR expression in a time-dependent manner
AR; human cancer cells, 0.5 μM to 2 μM, 24 h, dose-dependent (FIG. 3A)
  AR expression (RT-PCR): down regulated
